Patent US20250214978A1, “AT2R AGONIST” (WUHAN HUMANWELL INNOVATIVE DRUG RESEARCH AND DEVELOPMENT …, priority 2022, published 2025)
Where two headings read alike, the source gives them in different places. Values belong to the molecule of their own block, whether it stands above or below them.

How the values were obtained:
[1] = biological target: AT2R (Homo sapiens (Human), UniProt P50052); test: Binding assay of compounds to AT2R (Tag-lite HTRF ligand binding kit); settings: 1 hour incubation at room temperature
AT2R, sequence (P50052 whole entry): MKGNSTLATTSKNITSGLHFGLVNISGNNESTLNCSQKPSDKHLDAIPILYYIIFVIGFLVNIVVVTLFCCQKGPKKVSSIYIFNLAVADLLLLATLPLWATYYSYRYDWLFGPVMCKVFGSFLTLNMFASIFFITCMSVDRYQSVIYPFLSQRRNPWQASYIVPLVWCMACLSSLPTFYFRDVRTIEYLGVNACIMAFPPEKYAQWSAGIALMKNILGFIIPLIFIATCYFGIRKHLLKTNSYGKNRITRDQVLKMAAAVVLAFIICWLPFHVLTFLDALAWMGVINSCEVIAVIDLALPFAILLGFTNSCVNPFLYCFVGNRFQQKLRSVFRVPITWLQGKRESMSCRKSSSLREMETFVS
Method: The assay was performed in accordance with the instruction manual of Angiotensin AT2 Receptor Ligand Binding Assay Kit (#C1TT1AT2, Cisbio). First, a compound stock solution (10 mM) was diluted in a gradient at a 5× dilution ratio (including 10 concentrations, each with two replicates). 160 nL of compounds at different concentrations was added to a 384-well plate. 40 μL of 1×TLB was added to each well, and the mixture was shaken at room temperature for 15 minutes. 15 mL centrifuge tube added with 5 mL of 1×TLB was prepared in advance. The frozen labeled cells were thawed in a water bath at 37° C. (for 1 to 2 minutes), and the thawed cells were quickly transferred to the above 15 mL centrifuge tube. The mixture was mixed well and centrifuged at 1,000 g at room temperature for 5 minutes. The supernatant was removed, and the cells were resuspended by adding 2.7 mL 1×TLB. A new 384-well plate was taken, and 10 μL of mixed cells were added into the corresponding wells according to the assay design. 5 μL of 4× compound solution and 5 μL of 4× Tag-lite red fluorescent labeled ligand were added to each well. After incubation at room temperature for 1 hour, data were read using EnVision with an HTRF mode. The excitation light intensities at 665 nM and 615 nM in each well were read respectively, and the ratio was calculated (Ratio=A665nMIB615 nM). The IC50 value was calculated by means of GraphPad Prism8 software, where X represents logarithmic value of compound concentration; and Y represents ratio of A665 nM/B615 nM.

[2] = Free plasma protein binding (PPB) assay, equilibrium dialysis; type: in vitro ADME; settings: dialysis 6 hours at 37° C.
Method: The dried dialysis membrane was soaked in ultrapure water for 1 hour, then soaked in 20% ethanol for 20 minutes, and then rinsed with ultrapure water for 2 to 3 times. Finally, the dried dialysis membrane was soaked in ultrapure water for 20 minutes for later use. The frozen plasma was thawed in a water bath at 37° C. for about 20 minutes. pH value of the plasma was measured after thawing was complete, and was adjusted to 7.4 with 1% phosphoric acid solution or 0.1M sodium hydroxide solution. […] The pretreated dialysis membrane was assembled into the dialysis plate according to product instructions, and 100 μL of receiving solution (100 mM phosphate buffer solution plus 0.002% Tween 80) was added to one side of the permeable membrane in each dialysis well. 20 μL of each of the final solution of the test compound and the final solution of the control compound were taken in a 96-well sample plate, two duplicate samples were made, and T0 sample was obtained, which was stored in a −20° C. refrigerator. Another 100 μL of each of the above-mentioned final solutions were taken to the other side of the membrane in the dialysis device, two duplicate samples were made, and incubated at 37° C. with constant shaking for 6 hours. After 6 hours of incubation, 20 μL of each of the dialyzed receiving solution and the administered plasma were taken, two duplicate samples were made, and sample A and sample B were obtained. Corresponding blank plasma or receiving solution of corresponding volume were added to sample B and sample A, respectively, allowing the volume ratio of plasma to buffer in each sample well to be 1:1. 300 μL of sample-containing internal standard acetonitrile solution was added to all the sample wells. The mixture was mixed well, and centrifuged at 5,500×g for 10 minutes. 150 μL of corresponding ultrapure water was added to the corresponding sample wells of the 96-well sample plate. 150 μL of the supernatant was taken into the sample wells, and mixed well. Then, LC/MS/MS analysis was performed. The calculation formula of fu is: […]
where: CR: peak area ratio measured in the receiving chamber well CD: peak area ratio measured in the supply chamber well.

[3] = biological target: CYP2C9 (Homo sapiens (Human), UniProt P11712); test: CYP inhibition assay in mixed human liver microsomes; type: in vitro ADME; settings: mixed (pooled) human liver microsomes, read-out: Inhibition rate % CYP2C9
CYP2C9, sequence (P11712 whole entry): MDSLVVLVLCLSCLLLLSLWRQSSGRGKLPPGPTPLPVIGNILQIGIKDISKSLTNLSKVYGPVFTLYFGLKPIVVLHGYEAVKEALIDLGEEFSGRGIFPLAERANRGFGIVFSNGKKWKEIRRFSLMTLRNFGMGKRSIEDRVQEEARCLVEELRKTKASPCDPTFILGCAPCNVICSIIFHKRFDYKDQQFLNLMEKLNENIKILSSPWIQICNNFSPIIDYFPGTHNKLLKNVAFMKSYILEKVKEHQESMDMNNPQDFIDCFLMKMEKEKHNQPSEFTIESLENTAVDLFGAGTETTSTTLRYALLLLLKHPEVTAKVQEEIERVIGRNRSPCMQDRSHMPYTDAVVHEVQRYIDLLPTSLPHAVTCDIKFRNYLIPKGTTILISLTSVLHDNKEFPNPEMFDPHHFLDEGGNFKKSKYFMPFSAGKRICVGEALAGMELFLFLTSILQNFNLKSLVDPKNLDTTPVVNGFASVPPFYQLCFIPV
Method: (§1) The inhibitory effects of the compounds on seven enzymes, i.e., CYP1A2, CYP2C9, CYP2C19, CYP2D6, CYP3A4 (midazolam), CYP2B6, and CYP2C8, were evaluated at a concentration of 10 μM. Mixed human liver microsomes, which were previously stored in a −80° C. refrigerator before use, were taken out and thawed in a water bath at 37° C. before use, and placed on ice for further operation. 100 μL of microsome working solution was taken, and added with 2 μL of test product or positive inhibitor working solution. 2 μL of solvent was added to the solvent control. The mixture was pre-incubated in a water bath at 37° C. for 10 minutes. After preincubation, 98 μL of NADPH regeneration solution was added to all samples to initiate the reaction. Then, the samples were put back into the water bath and incubated for a period of time. The reaction was quenched with 200 μL of stop solution. The plate was centrifuged at 3,220 g for 10 minutes, 100 μL of supernatant was transferred, and 100 μL of water was added and mixed well to the assay plate for LC/MS/MS analysis.

[4] = biological target: CYP2C8 (Homo sapiens (Human), UniProt P10632); test: as above; type: in vitro ADME; settings: mixed (pooled) human liver microsomes, read-out: Inhibition rate % CYP2C8
CYP2C8, sequence (P10632 whole entry): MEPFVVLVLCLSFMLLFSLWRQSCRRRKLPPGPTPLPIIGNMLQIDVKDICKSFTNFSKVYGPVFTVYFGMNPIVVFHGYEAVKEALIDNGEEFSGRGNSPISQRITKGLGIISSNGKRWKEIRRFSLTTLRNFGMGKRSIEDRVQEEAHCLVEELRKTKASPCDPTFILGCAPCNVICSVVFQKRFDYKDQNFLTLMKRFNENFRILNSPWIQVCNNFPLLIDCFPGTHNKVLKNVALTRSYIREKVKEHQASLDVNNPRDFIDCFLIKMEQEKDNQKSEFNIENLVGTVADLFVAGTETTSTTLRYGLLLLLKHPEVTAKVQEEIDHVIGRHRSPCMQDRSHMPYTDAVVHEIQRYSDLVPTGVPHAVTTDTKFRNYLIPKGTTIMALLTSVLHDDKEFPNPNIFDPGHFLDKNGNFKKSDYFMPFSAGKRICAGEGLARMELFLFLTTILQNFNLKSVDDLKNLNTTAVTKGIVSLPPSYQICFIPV
Method: as §1

[5] = biological target: CYP2B6 (Homo sapiens (Human), UniProt P20813); test: as above; type: in vitro ADME; settings: mixed (pooled) human liver microsomes, read-out: Inhibition rate % CYP2B6
CYP2B6, sequence (P20813 whole entry): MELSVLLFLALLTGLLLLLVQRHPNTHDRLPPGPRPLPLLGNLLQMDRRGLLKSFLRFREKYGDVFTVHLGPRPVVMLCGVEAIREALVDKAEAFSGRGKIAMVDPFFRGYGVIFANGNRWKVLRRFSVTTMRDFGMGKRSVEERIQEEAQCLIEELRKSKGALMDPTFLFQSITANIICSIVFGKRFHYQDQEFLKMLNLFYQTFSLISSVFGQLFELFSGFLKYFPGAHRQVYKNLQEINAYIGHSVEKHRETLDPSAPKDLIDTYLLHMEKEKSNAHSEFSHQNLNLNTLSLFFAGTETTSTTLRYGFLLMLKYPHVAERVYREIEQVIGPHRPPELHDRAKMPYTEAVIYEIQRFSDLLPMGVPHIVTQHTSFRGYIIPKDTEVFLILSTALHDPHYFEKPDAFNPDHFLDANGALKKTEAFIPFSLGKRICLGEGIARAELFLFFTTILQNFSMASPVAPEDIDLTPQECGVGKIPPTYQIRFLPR
Method: as §1

[6] = biological target: CYP2D6 (Homo sapiens (Human), UniProt P10635); test: as above; type: in vitro ADME; settings: mixed (pooled) human liver microsomes, read-out: Inhibition rate % CYP2D6
CYP2D6, sequence (P10635 whole entry): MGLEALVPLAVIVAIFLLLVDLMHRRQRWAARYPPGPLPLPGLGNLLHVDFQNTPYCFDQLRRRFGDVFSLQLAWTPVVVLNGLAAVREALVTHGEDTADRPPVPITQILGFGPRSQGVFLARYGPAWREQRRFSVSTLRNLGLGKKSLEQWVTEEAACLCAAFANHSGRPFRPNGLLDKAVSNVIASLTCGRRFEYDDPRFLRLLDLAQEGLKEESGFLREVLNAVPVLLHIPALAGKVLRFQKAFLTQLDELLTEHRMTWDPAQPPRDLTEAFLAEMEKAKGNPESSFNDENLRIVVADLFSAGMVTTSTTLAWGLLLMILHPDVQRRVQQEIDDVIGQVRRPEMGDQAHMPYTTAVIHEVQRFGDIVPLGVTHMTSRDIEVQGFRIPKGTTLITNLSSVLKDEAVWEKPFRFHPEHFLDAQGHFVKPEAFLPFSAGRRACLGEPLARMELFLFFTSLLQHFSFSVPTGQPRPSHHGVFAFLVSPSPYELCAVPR
Method: as §1

[7] = biological target: CYP1A2 (Homo sapiens (Human), UniProt P05177); test: as above; type: in vitro ADME
CYP1A2, sequence (P05177 whole entry): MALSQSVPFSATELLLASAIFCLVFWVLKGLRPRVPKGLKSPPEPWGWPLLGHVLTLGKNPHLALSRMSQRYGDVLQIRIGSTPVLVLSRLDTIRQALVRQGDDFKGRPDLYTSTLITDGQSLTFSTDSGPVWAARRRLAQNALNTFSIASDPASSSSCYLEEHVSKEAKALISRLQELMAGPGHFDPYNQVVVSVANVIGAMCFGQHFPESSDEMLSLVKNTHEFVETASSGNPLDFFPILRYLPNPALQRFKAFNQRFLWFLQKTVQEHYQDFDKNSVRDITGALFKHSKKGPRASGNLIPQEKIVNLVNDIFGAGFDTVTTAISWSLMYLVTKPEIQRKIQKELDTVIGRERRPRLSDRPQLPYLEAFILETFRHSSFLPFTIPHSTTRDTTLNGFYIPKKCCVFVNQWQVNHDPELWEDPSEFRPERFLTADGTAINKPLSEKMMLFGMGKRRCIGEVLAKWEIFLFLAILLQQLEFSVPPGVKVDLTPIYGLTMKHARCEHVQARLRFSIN
Method: as §1

[8] = biological target: CYP2C19 (Homo sapiens (Human), UniProt P33261); test: as above; type: in vitro ADME; settings: mixed (pooled) human liver microsomes, read-out: Inhibition rate % CYP2C19
CYP2C19, sequence (P33261 whole entry): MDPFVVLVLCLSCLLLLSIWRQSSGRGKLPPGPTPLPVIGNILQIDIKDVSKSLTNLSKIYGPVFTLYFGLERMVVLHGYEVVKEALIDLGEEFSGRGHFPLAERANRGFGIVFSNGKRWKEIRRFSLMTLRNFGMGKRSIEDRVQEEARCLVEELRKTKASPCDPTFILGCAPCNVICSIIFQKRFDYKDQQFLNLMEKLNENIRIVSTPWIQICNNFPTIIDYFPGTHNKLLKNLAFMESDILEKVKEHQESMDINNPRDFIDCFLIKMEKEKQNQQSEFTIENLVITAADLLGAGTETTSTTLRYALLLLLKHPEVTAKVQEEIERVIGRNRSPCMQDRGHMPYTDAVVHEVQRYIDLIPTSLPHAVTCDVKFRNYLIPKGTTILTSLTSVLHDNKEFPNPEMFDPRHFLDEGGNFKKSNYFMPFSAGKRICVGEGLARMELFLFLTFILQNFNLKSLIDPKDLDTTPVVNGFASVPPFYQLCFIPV
Method: as §1

[9] = biological target: CYP3A4 (Homo sapiens (Human), UniProt P08684); test: as above; type: in vitro ADME; settings: mixed (pooled) human liver microsomes, probe midazolam, read-out: Inhibition rate % CYP3A4 (midazolam)
CYP3A4, sequence (P08684 whole entry): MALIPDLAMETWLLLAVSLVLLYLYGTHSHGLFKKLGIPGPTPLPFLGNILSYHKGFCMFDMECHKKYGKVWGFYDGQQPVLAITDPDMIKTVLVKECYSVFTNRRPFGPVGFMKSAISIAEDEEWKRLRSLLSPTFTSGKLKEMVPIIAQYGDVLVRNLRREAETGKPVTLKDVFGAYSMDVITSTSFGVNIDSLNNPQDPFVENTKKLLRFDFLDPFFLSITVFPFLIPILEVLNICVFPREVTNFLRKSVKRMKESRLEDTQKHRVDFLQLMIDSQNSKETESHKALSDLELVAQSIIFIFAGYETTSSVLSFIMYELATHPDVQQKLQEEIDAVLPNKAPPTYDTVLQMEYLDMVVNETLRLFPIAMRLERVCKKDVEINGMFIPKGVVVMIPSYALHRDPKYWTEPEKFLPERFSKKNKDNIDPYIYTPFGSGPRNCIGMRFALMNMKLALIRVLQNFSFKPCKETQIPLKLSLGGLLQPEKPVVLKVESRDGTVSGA
Method: as §1

[10] = dog, pH 7.4, Canine plasma, read-out: fu % Canine
[11] = pH 7.4, Mouse plasma, read-out: fu % Mouse
[12] = pH 7.4, Rat plasma, read-out: fu % Rat

IC50 [1]: 4.06 nM
SMILES: CCOC(=O)NS(=O)(=O)c1sc(CC(C)C)c(C)c1-c1ccc(Cn2ccnc2C)cc1 [Compound I-28, Ethyl ((5-isobutyl-4-methyl-3-(4-((2-methyl-1H-imidazol-1-yl)methyl)phenyl)thiophen-2-yl)sulfonyl)carbamate]

IC50 [1]: 4.5 nM
SMILES: CCCOC(=O)NS(=O)(=O)c1sc(CC(C)C)c(C)c1-c1ccc(Cn2ccnc2C)cc1 [Compound I-29, Propyl ((5-isobutyl-4-methyl-3-(4-((2-methyl-1H-imidazol-1-yl)methyl)phenyl)thiophen-2-yl)sulfonyl)carbamate]

IC50 [1]: 4.86 nM
SMILES: CCCCOC(=O)NS(=O)(=O)c1sc(CC(C)C)c(C)c1-c1ccc(Cn2ccnc2C)cc1 [Compound I-31, Butyl ((5-isobutyl-4-methyl-3-(4-((2-methyl-1H-imidazol-1-yl)methyl)phenyl)thiophen-2-yl)sulfonyl)carbamate]

IC50 [1]: 1.32 nM
SMILES: CCc1nccn1Cc1ccc(-c2c(S(=O)(=O)NC(=O)OC)sc(CC(C)C)c2C)cc1 [Compound I-32, Methyl ((3-(4-((2-ethyl-1H-imidazol-1-yl)methyl)phenyl)-5-isobutyl-4-methylthiophen-2-yl)sulfonyl)carbamate]

IC50 [1]: 1.61 nM
SMILES: COC(=O)NS(=O)(=O)c1sc(CC(C)C)c(C)c1-c1ccc(Cn2ccnc2C(C)C)cc1 [Compound I-33, Methyl ((5-isobutyl-3-(4-((2-isopropyl-1H-imidazol-1-yl)methyl)phenyl)-4-methylthiophen-2-yl)sulfonyl)carbamate]

IC50 [1]: 3.4 nM
SMILES: COC(=O)NS(=O)(=O)c1sc(CC(C)C)c(C)c1-c1ccc(Cn2ccnc2C)c(C)c1 [Compound I-35, Methyl ((5-isobutyl-4-methyl-3-(3-methyl-4-((2-methyl-1H-imidazol-1-yl)methyl)phenyl)thiophen-2-yl)sulfonyl)carbamate]

IC50 [1]: 2.39 nM
SMILES: CCCCOC(=O)NS(=O)(=O)c1sc(CC(C)C)cc1-c1ccc(Cn2ccnc2C)cc1C [Compound I-36, Butyl ((5-isobutyl-3-(2-methyl-4-((2-methyl-1H-imidazol-1-yl)methyl)phenyl)thiophen-2-yl)sulfonyl)carbamate]

More lines, now with the values behind:

SMILES: COC(=O)NS(=O)(=O)c1sc(CC(C)C)cc1-c1ccc(Cn2ccnc2C)cc1C [Compound I-11, Methyl (5-isobutyl-3-(2-methyl-4-((2-methyl-1H-imidazol-1-yl)methyl)phenyl)thiophen-2-yl)sulfonylcarbamate]
IC50 [1]: 1.51 nM
fraction unbound at 6 h, 1 μM [2, 10]: 0.0185
fraction unbound at 6 h, 1 μM ([2]; pH 7.4, Human plasma, read-out: fu % Human): 0.0039
fraction unbound at 6 h, 1 μM [2, 11]: 0.0121
fraction unbound at 6 h, 1 μM [2, 12]: 0.0097
inhibition at 10 µM [3]: 28.3%
inhibition at 10 µM [4]: 12.6%
inhibition at 10 µM [5]: 27.6%
inhibition at 10 µM [6]: 1.97%
inhibition at 10 µM [7]: 0%
inhibition at 10 µM [8]: 11%
inhibition at 10 µM [9]: 13.4%

SMILES: CCCCOC(=O)NS(=O)(=O)c1sc(CC(C)C)cc1-c1ccc(Cn2ccnc2C)c(C#N)c1 [Compound I-12, Butyl ((3-(3-cyano-4-((2-methyl-1H-imidazol-1-yl)methyl)phenyl)-5-isobutylthiophen-2-yl)sulfonyl)carbamate]
IC50 [1]: 1.35 nM
inhibition at 10 µM [3]: 45.8%
inhibition at 10 µM [4]: 39.5%
inhibition at 10 µM [5]: 31.6%
inhibition at 10 µM [6]: 10.4%
inhibition at 10 µM [7]: 4.18%
inhibition at 10 µM [8]: 30.2%
inhibition at 10 µM [9]: 21.1%

SMILES: COC(=O)NS(=O)(=O)c1sc(CC(C)C)cc1-c1ccc(Cn2ccnc2C(C)(C)C)c(C#N)c1 [Compound I-13, Methyl ((3-(4-((2-(tert-butyl)-1H-imidazol-1-yl)methyl)-3-cyanophenyl)-5-isobutylthiophen-2-yl)sulfonyl)carbamate]
IC50 [1]: 1.72 nM
fraction unbound at 6 h, 1 μM [2, 10]: 0.0116
fraction unbound at 6 h, 1 μM [2, 11]: 0.0211
fraction unbound at 6 h, 1 μM [2, 12]: 0.0043
inhibition at 10 µM [3]: 20.2%
inhibition at 10 µM [4]: 82.7%
inhibition at 10 µM [5]: 18.3%
inhibition at 10 µM [6]: 6.5%
inhibition at 10 µM [7]: 0.54%
inhibition at 10 µM [8]: 11.7%
inhibition at 10 µM [9]: 0%

SMILES: Cc1cc(-c2cc(CC(C)C)sc2S(=O)(=O)NC(=O)NCCO)ccc1Cn1ccnc1C [Compound I-23, N-((2-hydroxyethyl)carbamoyl)-5-isobutyl-3-(3-methyl-4-((2-methyl-1H-imidazol-1-yl)methyl)phenyl)thiophene-2-sulfonamide]
IC50 [1]: 11.3 nM

SMILES: COC(=O)NS(=O)(=O)c1sc(CC(C)C)cc1-c1ccc(Cn2ccnc2C)c(C#N)c1 [Compound I-24, Methyl ((3-(3-cyano-4-((2-methyl-1H-imidazol-1-yl)methyl)phenyl)-5-isobutylthiophen-2-yl)sulfonyl)carbamate]
IC50 [1]: 1.51 nM

SMILES: COC(=O)NS(=O)(=O)c1sc(CC(C)C)cc1-c1ccc(Cn2ccnc2C(C)(C)C)cc1C [Compound I-25, Methyl ((3-(4-((2-(tert-butyl)-1H-imidazol-1-yl)methyl)-2-methylphenyl)-5-isobutylthiophen-2-yl)sulfonyl)carbamate]
IC50 [1]: 5.65 nM

SMILES: COC(=O)NS(=O)(=O)c1sc(CC(C)C)c(C)c1-c1ccc(Cn2ccnc2C(C)(C)C)cc1 [Compound I-26, Methyl ((3-(4-((2-(tert-butyl)-1H-imidazol-1-yl)methyl)phenyl)-5-isobutyl-4-methylthiophen-2-yl)sulfonyl)carbamate]
IC50 [1]: 3.76 nM

SMILES: COC(=O)NS(=O)(=O)c1sc(CC(C)C)cc1-c1ccc(Cn2ccnc2C(C)C)c(C#N)c1 [Compound I-27, Methyl ((3-(3-cyano-4-((2-isopropyl-1H-imidazol-1-yl)methyl)phenyl)-5-isobutylthiophen-2-yl)sulfonyl)carbamate]
IC50 [1]: 3.35 nM
